These results are taken from patent US20240209016A1, “FLUORESCENT NUCLEOSIDE PHOSPHATES” (STEALTH LABELS BIOTECH AB, priority 2021, published 2024).

For the data set, the system named is Huh-7 cells. In words: alamarBlue cell viability (metabolic activity) assay. Type of data set: cell-based. The conditions noted are these: analogous experiments, FIG. 10. The procedure:
The Huh-7 human liver cell line was used.
After 24 h exposure with compounds 7 or 17, the conditioned medium was removed from the cells and used for the LDH leakage assay (see below). Freshly prepared alamarBlue cell viability reagent (Invitrogen, diluted 1:10 in CCM) was added, followed by incubation for 3 h at 37° C. and 5% CO2. The resulting resorufin fluorescence was read using an Optima Fluostar plate reader (BMG Labtech) Ex: 544 nm/Em: 590 nm. Dimethyl sulfoxide 5% and CCM alone (i.e. compounds 7 and 17 0 μM) were used as positive and negative controls for cell death, respectively.
(Alamar Blue is a resazurin reagent that responds to reducing activity.)

SMILES strings stand for the structures.

Consider `N#Cc1ccc2c(c1)Nc1ncnc3c1c-2cn3[C@@H]1O[C@H](COP(=O)(O)O)[C@@H](O)[C@H]1O` [7a, ((2R,3S,4R,5R)-5-(8-cyano-2,3,5,6-tetraazaaceanthrylen-2(6H)-yl)-3,4-dihydroxytetrahydrofuran-2-yl)methyl dihydrogen phosphate], for which the “toxicity (cytotoxicity assessment, monophosphate)” value is on record as “non-toxic”.
